Like-named read-outs stand apart in the source and are kept apart here.
Key:
[1] = tested on: tetrabenazine-induced sedation; test: Mouse antidepressant (antitetrabenazine) test: prevention of tetrabenazine-induced ptosis and loss of exploratory activity; conditions: for ED50: Mus musculus, po; for No. of Mice Blocked, EXPLORATORY ACTIVITY / No. of Mice Blocked, PTOSIS: 1 h after amantadine
mice = conditions: for NUMBER OF MICE DEAD: N=10; for Effect of amantadine on molindone toxicity (mortality): mice, oral
mouse brain MAO [2] = biological target: T1, mouse brain MAO (Mus musculus, UniProt Q64133); test: biochemical
T1 sequence (Q64133 1-526): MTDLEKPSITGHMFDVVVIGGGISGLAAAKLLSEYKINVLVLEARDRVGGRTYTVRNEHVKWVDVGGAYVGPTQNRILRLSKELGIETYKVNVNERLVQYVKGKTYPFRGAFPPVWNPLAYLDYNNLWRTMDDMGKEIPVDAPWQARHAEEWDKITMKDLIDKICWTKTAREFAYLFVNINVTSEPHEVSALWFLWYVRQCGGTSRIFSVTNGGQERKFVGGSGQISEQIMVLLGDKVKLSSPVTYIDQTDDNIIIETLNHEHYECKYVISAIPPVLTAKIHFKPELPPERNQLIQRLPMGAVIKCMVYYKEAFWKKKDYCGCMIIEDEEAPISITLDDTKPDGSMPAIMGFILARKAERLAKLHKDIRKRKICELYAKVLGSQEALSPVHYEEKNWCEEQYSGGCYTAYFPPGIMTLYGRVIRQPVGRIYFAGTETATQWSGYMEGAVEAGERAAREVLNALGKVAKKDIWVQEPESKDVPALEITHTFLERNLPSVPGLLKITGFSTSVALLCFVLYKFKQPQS

mouse brain MAO [3] = biological target: T1, mouse brain MAO; conditions: substrate 5 HT
[4] = 1 mg/kg oral (free base), 1 h, N=10
[5] = 3 mg/kg oral (free base), 1 h, N=10
[6] = 9 mg/kg oral (free base), 1 h, N=10
[7] = 20 mg/kg oral (free base), 0.5 h, N=20
[8] = 20 mg/kg oral (free base), 1 h, N=20
[9] = 20 mg/kg oral (free base), 2 h, N=20
[10] = 20 mg/kg oral (free base), 4 h, N=20
[11] = 27 mg/kg oral (free base), 1 h, N=10
[12] = 81 mg/kg oral (free base), 1 h, N=10
[13] = amantadine 2 mg/kg oral alone, N=20
[14] = amantadine 6 mg/kg oral alone, N=20
[15] = amantadine 18 mg/kg oral alone, N=20
[16] = amantadine 54 mg/kg oral alone, N=20
[17] = amantadine alone, oral, 1 h, free base basis, N=20 (Table 2)

SMILES: NC12CC3CC(CC(C3)C1)C2 [Amantadine, 1-adamantanamine]
- NUMBER OF MICE BLOCKED, EXPLORATORY ACTIVITY [1, 4]: 0
- NUMBER OF MICE BLOCKED, PTOSIS [1, 4]: 1
- NUMBER OF MICE BLOCKED, EXPLORATORY ACTIVITY [1, 5]: 0
- NUMBER OF MICE BLOCKED, PTOSIS [1, 5]: 1
- NUMBER OF MICE BLOCKED, EXPLORATORY ACTIVITY [1, 6]: 4
- NUMBER OF MICE BLOCKED, PTOSIS [1, 6]: 5
- NUMBER OF MICE BLOCKED, EXPLORATORY ACTIVITY [1, 7]: 1
- NUMBER OF MICE BLOCKED, PTOSIS [1, 7]: 4
- NUMBER OF MICE BLOCKED, EXPLORATORY ACTIVITY [1, 8]: 8
- NUMBER OF MICE BLOCKED, PTOSIS [1, 8]: 13
- NUMBER OF MICE BLOCKED, EXPLORATORY ACTIVITY [1, 9]: 6
- NUMBER OF MICE BLOCKED, PTOSIS [1, 9]: 11
- NUMBER OF MICE BLOCKED, EXPLORATORY ACTIVITY [1, 10]: 0
- NUMBER OF MICE BLOCKED, PTOSIS [1, 10]: 2
- NUMBER OF MICE BLOCKED, EXPLORATORY ACTIVITY [1, 11]: 4
- NUMBER OF MICE BLOCKED, PTOSIS [1, 11]: 7
- NUMBER OF MICE BLOCKED, EXPLORATORY ACTIVITY [1, 12]: 8
- NUMBER OF MICE BLOCKED, PTOSIS [1, 12]: 10
- ED50 ([1]; 1 h, read-out: ED50, E[…], oral, free base basis, 1 h after drug (Table 1)): 24 mg/kg
- ED50 ([1]; 1 h, read-out: ED50, PTOSIS, oral, free base basis, 1 h after drug (Table 1)): 9.6 mg/kg
- No. of Mice Blocked, EXPLORATORY ACTIVITY [1, 13]: 0
- No. of Mice Blocked, PTOSIS [1, 13]: 2
- No. of Mice Blocked, EXPLORATORY ACTIVITY [1, 14]: 2
- No. of Mice Blocked, PTOSIS [1, 14]: 4
- No. of Mice Blocked, EXPLORATORY ACTIVITY [1, 15]: 12
- No. of Mice Blocked, PTOSIS [1, 15]: 17
- No. of Mice Blocked, EXPLORATORY ACTIVITY [1, 16]: 16
- No. of Mice Blocked, PTOSIS [1, 16]: 19
- ED50, EXPLORATORY ACTIVITY, Amantadine [1, 17]: 16.6 mg/kg
- ED50, PTOSIS, Amantadine [1, 17]: 9.4 mg/kg
- ED50, PTOSIS ([1]; oral, free base basis, 1 h after drug (Table 1), 60 min): 9.4 mg/kg
- NUMBER OF MICE DEAD (mice; amantadine 267 mg/kg oral alone, 0.5 h): 0
- NUMBER OF MICE DEAD (mice; amantadine 267 mg/kg oral alone, 1 h): 0
- NUMBER OF MICE DEAD (mice; amantadine 267 mg/kg oral alone, 2 h): 0
- NUMBER OF MICE DEAD (mice; amantadine 267 mg/kg oral alone, 4 h): 0
- NUMBER OF MICE DEAD (mice; amantadine 267 mg/kg oral alone, 24 h): 0
- NUMBER OF MICE DEAD (mice; amantadine 267 mg/kg oral alone, 336 h): 0
- NUMBER OF MICE DEAD (mice; amantadine 400 mg/kg oral alone, 0.5 h): 1
- NUMBER OF MICE DEAD (mice; amantadine 400 mg/kg oral alone, 1 h): 1
- NUMBER OF MICE DEAD (mice; amantadine 400 mg/kg oral alone, 2 h): 1
- NUMBER OF MICE DEAD (mice; amantadine 400 mg/kg oral alone, 4 h): 1
- NUMBER OF MICE DEAD (mice; amantadine 400 mg/kg oral alone, 24 h): 1
- NUMBER OF MICE DEAD (mice; amantadine 400 mg/kg oral alone, 336 h): 1
- NUMBER OF MICE DEAD (mice; amantadine 600 mg/kg oral alone, 0.5 h): 4
- NUMBER OF MICE DEAD (mice; amantadine 600 mg/kg oral alone, 1 h): 4
- NUMBER OF MICE DEAD (mice; amantadine 600 mg/kg oral alone, 2 h): 4
- NUMBER OF MICE DEAD (mice; amantadine 600 mg/kg oral alone, 4 h): 4
- NUMBER OF MICE DEAD (mice; amantadine 600 mg/kg oral alone, 24 h): 5
- NUMBER OF MICE DEAD (mice; amantadine 600 mg/kg oral alone, 336 h): 5
- NUMBER OF MICE DEAD (mice; amantadine 900 mg/kg oral alone, 0.5 h): 8
- NUMBER OF MICE DEAD (mice; amantadine 900 mg/kg oral alone, 1 h): 8
- NUMBER OF MICE DEAD (mice; amantadine 900 mg/kg oral alone, 2 h): 8
- NUMBER OF MICE DEAD (mice; amantadine 900 mg/kg oral alone, 4 h): 8
- NUMBER OF MICE DEAD (mice; amantadine 900 mg/kg oral alone, 24 h): 8
- NUMBER OF MICE DEAD (mice; amantadine 900 mg/kg oral alone, 336 h): 8
- NUMBER OF MICE DEAD (mice; amantadine 1350 mg/kg oral alone, 0.5 h): 10
- NUMBER OF MICE DEAD (mice; amantadine 1350 mg/kg oral alone, 1 h): 10
- NUMBER OF MICE DEAD (mice; amantadine 1350 mg/kg oral alone, 2 h): 10
- NUMBER OF MICE DEAD (mice; amantadine 1350 mg/kg oral alone, 4 h): 10
- NUMBER OF MICE DEAD (mice; amantadine 1350 mg/kg oral alone, 24 h): 10
- NUMBER OF MICE DEAD (mice; amantadine 1350 mg/kg oral alone, 336 h): 10
- Effect of amantadine on molindone toxicity (mortality) (mice): decreases the toxicity of molindone
- Effect of amantadine on molindone toxicity (mortality) (mice; listed as amantadine hydrochloride): reduces molindone hydrochloride lethal toxicity

SMILES: NNCCc1ccccc1 [PHENELZINE . SO4]
- IC50 (mouse brain MAO [2]): 4 µM
- % INHIBITION (mouse brain MAO [3]; final conc. 10^-4 m/l): 88%
- % INHIBITION (mouse brain MAO [3]; final conc. 10^-5 m/l): 81%
- % INHIBITION (mouse brain MAO [3]; final conc. 10^-6 m/l): 3%

From patent publication US4148896A, “Antidepressant combination” (E. I. Du Pont de Nemours and Company, priority 1978, dated 1979)
